From PMC8309046 (Pharmaceutics, 2021)
Counter-ions that a name gives are not always drawn. Like-named read-outs stand apart in the source and are kept apart here.

Columns and labels:
[1] = target: T1, PptT (Mycobacterium tuberculosis, UniProt O33336); assay: LOPAC1280 single-point BpsA (indigoidine) end-point screen for PptT inhibitors; assay type: biochemical; conditions: for % Activity in PptT Screen / activity at 20 µM: single concentration (20 µM per Figure S4), 0.4 µM PptT, 0.6 µM apo-BpsA, 10 µM CoA, A590 relative to no-inhibitor positive controls
[2] = target: T2, holo-BpsA (Streptomyces lavendulae, UniProt Q1MWN4); assay: Counter-screen against pre-activated holo-BpsA (indigoidine synthesis); assay type: biochemical; conditions: for Inhibition of holo-BpsA: re-screen at higher concentration of 40 µM; for Inhibition of indigoidine synthesis by holo-BpsA in LOPAC1280 counter-screen: 0.6 µM holo-BpsA, no PPTase, screening concentration; for inhibition at 40 µM: read-out: Inhibition of holo-BpsA
T2 construct: made in house; host or cells: E. coli BL21(DE3) ΔentD
T2 sequence (Q1MWN4 1-1282): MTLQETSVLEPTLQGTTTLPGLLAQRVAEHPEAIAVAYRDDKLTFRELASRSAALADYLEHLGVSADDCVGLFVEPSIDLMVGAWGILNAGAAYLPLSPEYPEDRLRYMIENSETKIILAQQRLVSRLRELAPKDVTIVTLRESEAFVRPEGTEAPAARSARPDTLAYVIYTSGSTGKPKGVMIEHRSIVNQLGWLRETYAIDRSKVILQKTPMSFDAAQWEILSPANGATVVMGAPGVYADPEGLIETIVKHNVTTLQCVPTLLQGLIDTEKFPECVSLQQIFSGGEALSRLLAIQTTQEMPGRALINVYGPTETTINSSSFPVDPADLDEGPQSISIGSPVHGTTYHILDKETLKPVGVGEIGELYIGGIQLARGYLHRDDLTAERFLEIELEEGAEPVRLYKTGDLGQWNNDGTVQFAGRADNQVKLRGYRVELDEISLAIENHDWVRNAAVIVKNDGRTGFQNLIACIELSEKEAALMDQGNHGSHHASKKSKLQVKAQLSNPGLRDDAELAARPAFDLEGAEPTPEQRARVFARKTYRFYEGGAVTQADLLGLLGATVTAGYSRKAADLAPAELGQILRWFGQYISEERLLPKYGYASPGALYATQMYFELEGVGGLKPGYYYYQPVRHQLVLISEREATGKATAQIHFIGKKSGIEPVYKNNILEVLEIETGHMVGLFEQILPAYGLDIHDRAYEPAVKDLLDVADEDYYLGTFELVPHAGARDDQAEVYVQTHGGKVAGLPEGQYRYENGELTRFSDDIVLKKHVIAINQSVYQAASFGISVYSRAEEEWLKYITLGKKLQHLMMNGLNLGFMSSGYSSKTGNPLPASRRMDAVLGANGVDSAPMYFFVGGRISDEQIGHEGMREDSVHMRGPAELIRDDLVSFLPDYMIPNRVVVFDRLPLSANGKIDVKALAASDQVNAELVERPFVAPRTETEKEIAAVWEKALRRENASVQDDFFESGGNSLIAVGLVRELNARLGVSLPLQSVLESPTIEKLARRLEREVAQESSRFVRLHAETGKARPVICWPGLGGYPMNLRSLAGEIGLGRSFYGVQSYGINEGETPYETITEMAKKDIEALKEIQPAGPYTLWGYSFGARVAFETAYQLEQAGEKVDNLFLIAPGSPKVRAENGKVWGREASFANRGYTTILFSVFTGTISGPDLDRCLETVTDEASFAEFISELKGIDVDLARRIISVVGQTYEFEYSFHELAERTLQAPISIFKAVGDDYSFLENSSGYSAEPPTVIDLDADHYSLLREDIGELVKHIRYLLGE
Experimental: The Sigma-Aldrich LOPAC^1280 collection was first diluted to a working stock of […] per compound. To screen the collection, 88 reactions at a time were established in columns 1–11 of a standard 96 well-plate. Each was prepared from 30 µL of reaction mix comprising 50 mM Tris-Cl (pH 8.0), 0.01% (v/v) Triton-X, 10 mM MgCl2, 5 mM ATP, 5 mM L-glutamine and 10 µM CoA. Next, a CyBio liquid handler was used to pin 2 µL of compound into columns 2–11 and 2 µL of DMSO into column 1. To screen for PptT inhibitors, 10 µL of PPTase mix comprising a freshly-prepared stock of 0.4 µM PptT and 50 mM Tris-Cl (pH 8.0) was added to wells A1–C1 and columns 2–11 (see Supplementary Figure S1). To initiate indigoidine synthesis, 10 µL of 0.6 µM apo-BpsA in 50 mM Tris-Cl (pH 8.0) was added to each well. To screen for holo-BpsA inhibitors, an equivalent screening format was established only using 0.6 µM holo-BpsA and with no PPTase mix added. Each plate was then shaken at 1000 rpm for 10 s and incubated at room temperature for 1 h. Indigoidine was then resolubilised by the addition of 200 µL DMSO and incubation at 37 °C with shaking at 200 rpm for 0.5 h. A Perkin Elmer Enspire plate reader was then used to record the absorbance readings at 590 nm. The Python package Pandas was used to process the data, which was then visualised using the Python package Seaborn.

[3] = tested on: SARS-CoV-2 protease; conditions: LOPAC1280 screen, FRET-based reporter; cited from earlier work
[4] = target: T1, PptT; assay: BpsA end-point dose-response assay of PptT inhibition (EC50); assay type: biochemical; conditions: for EC50: end-point assay, two-fold serial dilution from 40 µM, 0.4 µM PptT, 0.6 µM apo-BpsA, three independent replicates ± standard error
[5] = target: T1, PptT; assay type: biochemical; conditions: kinetic assay, serial dilution 200 µM to 0.2 µM; 0.4 µM PptT, 0.6 µM apo-BpsA
[6] = tested on: PPTases; design: method as in PMID 20094656, PMID 21466506, PMID 33118808; conditions: cited from earlier work
[7] = tested on: Sfp; design: method as in PMID 24192555; conditions: cited from earlier work
[8] = tested on: M. tuberculosis PptT; design: method as in PMID 24963544; conditions: cited from earlier work

T1 sequence (O33336 whole entry): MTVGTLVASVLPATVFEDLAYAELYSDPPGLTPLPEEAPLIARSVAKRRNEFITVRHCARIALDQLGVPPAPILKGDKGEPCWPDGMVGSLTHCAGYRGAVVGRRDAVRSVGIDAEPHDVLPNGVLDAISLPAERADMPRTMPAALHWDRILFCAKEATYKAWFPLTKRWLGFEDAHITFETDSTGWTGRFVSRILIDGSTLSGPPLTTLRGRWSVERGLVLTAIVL

Row | Compound | % Activity in PptT Screen [1] [%] | Hit as SARS-CoV-2 protease inhibitor [3] | EC50 [4] [µM] | also measured
1 | NC(Cc1cc(O)c(O)cc1O)C(=O)O (racemic) [6-Hydroxy-DL-DOPA] | 26 | strong protease inhibitors | – | Inhibition of holo-BpsA [2]: less than 15%
2 | O=C(O)c1cc[c]([Hg][Cl])cc1 [4-chloromercuribenzoic acid] | – | – | – | Inhibition of indigoidine synthesis by holo-BpsA in LOPAC1280 counter-screen [2]: inhibiting indigoidine synthesis
3 | O=Nc1ccc2oc(=O)ccc2c1 [6-Nitroso-1,2-benzopyrone] | 12 | strong protease inhibitors | 8.3 ± 1.7 | EC50 [5]: 4.4 ± 1.2 µM; Inhibition of holo-BpsA [2]: less than 15%; Activity in vitro against PPTases [6]: activity in vitro against numerous PPTases
4 | CCCCCCCCCCC/C=C\C(C)(C)/C=C\CCCC(=O)O [7,7-Dimethyl-(5z,8z)-eicosadienoic acid] | 49 | – | – | Inhibition of holo-BpsA [2]: less than 15%
5 | Br.CCCN(CCC)C1CCc2cccc(O)c2C1 (stereo not shown) [8-hydroxy-DPAT hydrobromide] | – | – | – | Inhibitory activity on PptT in serial dilution (result in words) ([4]; two-fold serial dilutions (40 µM to 0.3 µM) in PptT/apo-BpsA reaction mix): no inhibitory activity was observed
6 | O=C(O)C1=CC(=C(c2ccc(O)c(C(=O)O)c2)c2ccc(O)c(C(=O)O)c2)C=CC1=O [Aurintricarboxylic acid] | – | strong protease inhibitors | 4.8 ± 0.9 | activity at 20 µM [1]: 32%
7 | CC(C)(C)c1ccc(S(=O)(=O)/C=C/C#N)cc1 [Bay 11-7085] | 10 | strong protease inhibitors | 7.4 ± 0.4 | –
8 | CCN(CC)C(=S)SSC(=S)N(CC)CC [Disulfiram] | – | strong protease inhibitors | 6 ± 1.5 | activity at 20 µM [1]: 9%; inhibition at 40 µM [2]: < 15%
9 | O=C1Nc2ccc(I)cc2/C1=C/c1cc(Br)c(O)c(Br)c1 [GW5074] | 43 | – | – | –
10 | COc1cc(/C=C(\C#N)C(=O)c2ccc(O)c(O)c2)cc(I)c1O [I-OMe-Tyrphostin AG 538] | 40 | – | – | –
11 | N=C1Sc2ccccc2C2=NCCCN12 [PD 404, 182] | 35 | strong protease inhibitors | – | –
12 | Nc1c(S(=O)(=O)O)cc(Nc2ccc(Nc3nc(Cl)nc(Nc4cccc(S(=O)(=O)O)c4)n3)c(S(=O)(=O)O)c2)c2c1C(=O)c1ccccc1C2=O [Reactive Blue 2] | – | – | – | activity at 20 µM [1]: 38%
13 | CC(=O)c1c(O)c(C)c(O)c(Cc2c(O)c3c(c(C(=O)/C=C/c4ccccc4)c2O)OC(C)(C)C=C3)c1O [Rottlerin] | – | – | – | activity at 20 µM [1]: 48%
14 | Br.CN=c1nc(-c2ccccc2)n(-c2ccccc2)s1 [SCH-202676 hydrobromide] | 0.7 | – | 5.9 ± 0.1 | Inhibition of holo-BpsA [2]: noticeably inhibitory
15 | C[n+]1cc2c3c(ccc2c2ccc4cc5c(cc4c21)OCO5)OCO3 [Sanguinarine chloride] | – | strong protease inhibitors | – | activity at 20 µM [1]: 44%; inhibition at 40 µM [2]: < 15%; Reported as inhibitor of Sfp [7]: inhibitor; Reported as inhibitor of M. tuberculosis PptT [8]: inhibitor
16 | N#C/C(=C\c1ccc(O)c(O)c1)C(=O)NCCCNC(=O)/C(C#N)=C/c1ccc(O)c(O)c1 [Tyrphostin AG 537] | 35 | – | 5.9 ± 0.5 | –
17 | N#C/C(=C\c1ccc(O)c(O)c1)C(=O)c1ccc(O)c(O)c1 [Tyrphostin AG 538] | 24 | – | 6.4 ± 0.7 | –
18 | COc1ccc2c(c1)CC[C@@H]1[C@@H]2CC[C@]2(C)[C@@H](NCCCCCCN3C(=O)C=CC3=O)CC[C@@H]12 [U-73122] | 44 | strong protease inhibitors | 8.1 ± 0.5 | –
19 | CN(C)CC/C=C1/c2ccccc2Sc2ccc(Cl)cc21 [chlorprothixene hydrochloride] | – | – | – | Registered as inhibitor of PptT in primary screen (result in words) ([1]; LOPAC1280 primary screen): did not register as an inhibitor of PptT; Inhibition of indigoidine synthesis by holo-BpsA in LOPAC1280 counter-screen [2]: inhibiting indigoidine synthesis
20 | O=c1c2ccccc2[se]n1-c1ccccc1 [ebselen] | – | – | – | Inhibition of indigoidine synthesis by holo-BpsA in LOPAC1280 counter-screen [2]: inhibiting indigoidine synthesis
21 | Cc1ccc(C(=O)Nc2ccc(S(=O)(=O)O)c3cc(S(=O)(=O)O)cc(S(=O)(=O)O)c23)cc1NC(=O)c1cccc(NC(=O)Nc2cccc(C(=O)Nc3cc(C(=O)Nc4ccc(S(=O)(=O)O)c5cc(S(=O)(=O)O)cc(S(=O)(=O)O)c45)ccc3C)c2)c1 [suramin hexasodium] | – | – | – | Inhibition of indigoidine synthesis by holo-BpsA in LOPAC1280 counter-screen [2]: inhibiting indigoidine synthesis
22 | Tyrphostin AG 808 | 34 | – | – | –
